Measurements as given in PubChem BioAssay AID1117296 (The Scripps Research Institute Molecular Screening Center, 2014).
Calls of active or inactive are those of the source.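 Rule for the calls: active = IC50 at or below 10 µM; inactive = IC50 above 10 µM.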

Each molecule was assayed on HuH7 TTR-promoter Gaussia luciferase reporter, luminescence (assay: potency of TTR promoter reporter decrease in HuH7 – cell-based, luminescence, HuH7 hepatoma, IC50, counter-screen for TTR transcription activator project, dose response (AID 1117296)).
For `Cc1ccc(Nc2c3c(nc4ncnn24)CCC3)cc1`, the IC50 was > 167 µM (inactive). For `OCCNc1c2ccccc2nc2ccccc12`, the IC50 was 54.9 µM (inactive). For `Cc1cccc(N(C)c2ncnc3onc(-c4ccc(F)cc4)c23)c1C`, the IC50 was > 55.2 µM (inactive). With `Cc1nnc(SCc2ccc(Cl)cc2)nc1/C=C/N(C)C` the IC50 was 81.3 µM (inactive). For `COc1cccc(-c2csc(NC(=O)C3CC3)n2)c1`, the IC50 was 103 µM (inactive). `Cc1c(Br)c(C(=O)N2CCc3ccccc32)nn1C` was tested, and the IC50 was > 167 µM (inactive). With `Cc1ccc(/C=N/NC(=O)c2csc(C)c2)o1` the IC50 was 116 µM (inactive). With `Cc1cccc(NC(c2ccc(O)cc2)c2ccc3ccc(C)nc3c2O)n1` (stereo not given) the IC50 was 61.8 µM (inactive). In the case of `O=c1cc(O)c2sc(Nc3ccc(Cl)c(F)c3)nc2[nH]1`, the IC50 is reported as > 167 µM (inactive). In the case of `[O-]/C(=C(\C(=S)Nc1ccc(SC(F)F)cc1)[n+]1ccccc1)c1cc(Cl)ccc1Cl`, the IC50 is reported as > 167 µM (inactive). `CCn1ncc(/C=N\NC(=O)c2csc3ccccc23)c1C` was tested, and the IC50 was > 167 µM (inactive). `Cc1c(NS(=O)(=O)c2ccc(NC3CCCC3)c([N+](=O)[O-])c2)c(=O)n(-c2ccccc2)n1C` was tested, and the IC50 was > 167 µM (inactive). `COc1ccc([C@@H]2CC=C(C(=O)O)[C@H](c3ccccc3F)N2S(=O)(=O)c2ccccc2C)cc1` was tested, and the IC50 was 66.3 µM (inactive). For `Cn1cc(Br)c(C(=O)N2CCc3ccccc32)n1`, the IC50 was > 167 µM (inactive). With `Cn1ncc(Cl)c1C(=O)N1CCc2ccccc21` the IC50 was > 167 µM (inactive). For `CC1CN(Cc2ccccc2)c2nc3c(c(=O)n(CC(N)=O)c(=O)n3C)n2C1` (stereo not given), the IC50 was > 167 µM (inactive). `Cc1cnc(NC(=O)CCCc2nc3ccccc3s2)s1` was tested, and the IC50 was > 167 µM (inactive). With `COc1ccc(C(=O)NC2CCCc3c2cnn3-c2cc(F)cc(F)c2)c(OC)c1OC` (stereo not given) the IC50 was 61.9 µM (inactive). `CCOc1ccc(N=C2NC(=O)S/C2=C\c2ccc(O)cc2)cc1` was tested, and the IC50 was > 167 µM (inactive). In the case of `CC(=O)c1cc(C(C)=O)c(C)nc1C`, the IC50 is reported as > 167 µM (inactive). `N=c1ccn(CC(=O)NC(N)=O)c2ccccc12` was tested, and the IC50 was > 167 µM (inactive). `Cc1ccc(C2CC(c3ccccc3)=NN2C(=S)Nc2ccccc2)o1` (stereo not given) was tested, and the IC50 was > 167 µM (inactive). For `COc1ccc2cc3c(N)nn(C(=O)c4ccccc4[N+](=O)[O-])c3nc2c1`, the IC50 was 34.8 µM (inactive). With `Cc1ccc([C@H]2C[C@@H](O)[C@H](n3cc(-c4ccc(F)cc4)nn3)CN2C(=O)c2cccs2)cc1` the IC50 was 63 µM (inactive). In the case of `COc1ccc(-c2cc(C)no2)cc1S(=O)(=O)NCc1cccc(C)c1`, the IC50 is reported as > 167 µM (inactive). `CN(Cc1ccccc1)C(=O)c1[nH]cnc1C(=O)NCC(=O)OC(C)(C)C` was tested, and the IC50 was > 167 µM (inactive). With `CC(C)CNC(=O)CSc1nnc2ccccn12` the IC50 was > 167 µM (inactive). `Cc1c(C(=O)N2CCc3ccccc32)cnn1C` was tested, and the IC50 was > 167 µM (inactive). With `O=C(CCl)c1cc2c3c(c1)CC(=O)N3CCC2` the IC50 was 19.8 µM (inactive). In the case of `CCCCn1c(O)c(C(=O)/C=C/c2ccc3c(c2)OCO3)c(=O)[nH]c1=O`, the IC50 is reported as 90.9 µM (inactive). With `Cn1c(O)c(/C=C2\N=c3ccccc3=C2CCNC(=S)NC2CC2)c(=O)n(C)c1=O` the IC50 was 45 µM (inactive). For `O=C/C(=C\Nc1ccccn1)c1nc2ccccc2o1`, the IC50 was > 18.4 µM (inactive). For `C=CCn1c(=O)c2c(nc3n2CC(C)CN3Cc2ccccc2)n(C)c1=O` (stereo not given), the IC50 was 82.5 µM (inactive). With `Cc1cc(C)n(CC(=O)n2c(C)c(C)c3ccccc32)n1` the IC50 was > 167 µM (inactive). For `CCOC(=O)Nc1nc(-c2ccccc2)c(C(=O)c2ccc(Cl)cc2)s1`, the IC50 was > 55.2 µM (inactive). `CCCC(=O)NC1=C(N2CC2)C(=O)C(NC(=O)CCC)=C(N2CC2)C1=O` was tested, and the IC50 was 23.5 µM (inactive). For `Cc1ccc(CNC(=O)Cc2ccc(-c3ccccc3)cc2)cc1`, the IC50 was > 167 µM (inactive). In the case of `Cc1cc(C(=O)N2CCc3ccccc32)n(-c2ccccc2)n1`, the IC50 is reported as 175 µM (inactive). `CN(C)CC(CCC(CN(C)C)C(O)(c1ccccc1)c1ccccc1)C(O)(c1ccccc1)c1ccccc1` (stereo not given) was tested, and the IC50 was 17.2 µM (inactive). In the case of `O=C(O)c1ccc(CSc2nnc(Cc3ccccc3)o2)cc1`, the IC50 is reported as 27.3 µM (inactive). For `Cn1ncc(Br)c1C(=O)N1CCc2ccccc21`, the IC50 was > 167 µM (inactive). In the case of `CN(C)CCNc1ccc(CO)c2oc3ccc(O)cc3c(=O)c12`, the IC50 is reported as > 55.2 µM (inactive). In the case of `c1cc2c(cc1C1=Nn3c(nnc3C3CCCCC3)SC1)OCO2`, the IC50 is reported as 47.1 µM (inactive). With `CCCNC(=O)c1ccc(N2CCC3(CC2)CC(c2ccccc2)=NO3)c(NC(=O)c2ccco2)c1` the IC50 was > 167 µM (inactive). With `Cn1nccc1C(=O)N1CCc2ccccc21` the IC50 was > 167 µM (inactive). For `COc1ccc(CCNc2c3ccccc3nc3ccccc23)cc1OC`, the IC50 was 54.4 µM (inactive). `COc1ccc(-c2noc(-c3cccs3)n2)cc1OC` was tested, and the IC50 was > 167 µM (inactive). For `O=[N+]([O-])c1cccc(-c2noc(-c3ccco3)n2)c1`, the IC50 was > 167 µM (inactive). With `Cn1cc(C2CC(c3ccccc3)=NN2C(=O)c2ccccc2)c2ccccc21` (stereo not given) the IC50 was > 167 µM (inactive). With `C/C(=N\Nc1ncc(Br)cn1)c1cccc([N+](=O)[O-])c1` the IC50 was > 167 µM (inactive). In the case of `Cc1ccccc1Cn1cc(COC(=O)N(C)Cc2ccccc2)nn1`, the IC50 is reported as 115 µM (inactive). In the case of `CC(Oc1ccccc1)C(=O)N1CCN=C1SCc1ccccc1` (stereo not given), the IC50 is reported as 70.7 µM (inactive). For `Cc1nn(C)c(C(=O)N2CCc3ccccc32)c1Br`, the IC50 was > 167 µM (inactive). `COc1ccc2[nH]c3c(Cl)ncnc3c2c1` was tested, and the IC50 was > 167 µM (inactive). With `c1ccc(Sc2ncnc3c2oc2ccccc23)nc1` the IC50 was 142 µM (inactive).
